Measured values as given in patent US20050239751A1, “Heterocyclic anti-viral compounds comprising metabolizable moieties and their uses” (Rigel Pharmaceuticals, Inc., priority 2004, published 2005).

Tested on: HCV replicon in 5-2 Luc replicon-comprising cells
Test: HCV replicon assay (luciferase; HEPC_REPLICON-LUC)
Type: cell-based, Hepatitis C virus
Conditions: Hepatitis C virus; Tables 3-12; 50% reduction in luciferase emission, 5-2 Luc replicon cells; read-out: Replicon (IC50)
Excerpt: In one embodiment, the inhibitory activity of the metabolically active agent of the prodrug can be confirmed in a replicon assay that assesses the ability of a test compound to block or inhibit HCV replication in replicon cells. One example of a suitable replicon assay is the liver cell-line Huh 7-based replicon assay described in Lohmann et al., 1999, Science 285:110-113. A specific example of this replicon assay which utilizes luciferase translation is provided in the Examples Section. In one embodiment of this assay, the amount of test prodrug that yields a 50% reduction in translation as compared to a control cell (IC50) may be determined.
The inhibitory activity of certain prodrugs of the invention, which may inhibit HCV translation or replication prior to metablism and/or are metabolized into active agents, was confirmed using an HCV replicon assay. The HCV replicon can include such features as the HCV 5′ untranslated region including the HCV IRES, the HCV 3′ untranslated region, selected HCV genes encoding HCV polypeptides, selectable markers, and a reporter gene such as luciferase, GFP, etc. In the assay, actively dividing 5-2 Luc replicon-comprising cells (obtained from Ralf Bartenschlager; see Lohmann et al., 1999, Science 285:110-113) were seeded at a density of between about 5,000 and 7,500 cells/well onto 96 well plates (about 90 µl of cells per well) and incubated at 37° C. and 5% CO2 for 24 hours. Then, the test prodrug (in a volume of about 10 PI) was added to the wells at various concentrations and the cells were incubated for an additional 24-48 hours before luciferase assay. The media was aspirated from each well and Bright-Glo (Promega, Madison, WI) luciferase assay reagents were added to each well according to the manufacturer's instructions. Briefly, the BrightGlo reagent was diluted 1:1 with PBS and 100 µl of diluted reagent was added to each well. After 5 min of incubation at room temperature, luciferin emission was quantified with a luminometer. In this assay, the amount of test prodrug that yielded a 50% reduction in luciferase emission (IC50) was determined. This IC50 value may represent the antiviral activity of the prodrug itself, the activity of prodrug transformed into its active metabolized form, or a combination of the two.
In TABLES 3 through 12, a value of “+” indicates an IC50 of 10 μM or less in the specified assay; a value of “−” indicates an IC50 of greater than 10 μM in the specified assay.

Compound	IC50 [µM]
CC(C)(C)c1oc(=O)oc1CN(C(=O)C(Cl)Cl)c1cccc(-c2cc(-c3c(Cl)cccc3Cl)no2)c1 [compound 1007, 2,2-dichloro-N-[3′-[3′-(2′,6′-dichlorophenyl)-5′-isoxazoyl]phenyl]-N-[(5-t-butyl-1,3-dioxolene-2-one4yl)methylene]acetamide]	≤ 10
CCC(C)OC(=O)C(Cl)(Cl)C(=O)Nc1cccc(-c2cc(-c3c(Cl)cccc3Cl)no2)c1 (stereo not shown) [Cpd. 12, 2′,2′-dichloro-2′-(sec-butoxycarbonyl)-N-[3-[3-(2,6-dichlorophenyl)-5-isoxazoyl]phenyl] acetamide]	≤ 10
CCCCCc1oc(=O)oc1CN(C(=O)C(Cl)Cl)c1ccnc(-c2cc(-c3c(Cl)cccc3Cl)no2)c1 [Cpd. 43, 2,2-dichloro-N-[2′-[3′-(2′,6′-dichlorophenyl)-5′-isoxazoyl](4pyridyl)]N-[(5-n-pentyl-1,3-dioxolene-2-one4yl)methylene] acetamide]	≤ 10
CC(C)c1oc(=O)oc1CN(C(=O)C(Cl)Cl)c1ccnc(-c2cc(-c3c(Cl)cccc3Cl)no2)c1 [Cpd. 42, 2,2-dichloro-N-[2′-[3′-(2′,6′-dichlorophenyl)-5′-isoxazoyl](4-pyridyl)]N-[(5-i-propyl-1,3-dioxolene-2-one4-yl)methylene] acetamide]	≤ 10
COc1cccc(Cl)c1-c1cc(-c2cccc(N(Cc3oc(=O)oc3C(C)C)C(=O)C(Cl)Cl)c2)on1 [Cpd. 37, 2,2-dichloro-N-[3′-[3′-(2′-chloro-6′-methoxyphenyl)-5′-isoxazoyl]phenyl]-N-[(5-isopropyl-1,3-dioxolene-2-one-4-yl)methylene] acetamide]	≤ 10
CC1(C)C2CCC1(C)C(OC(=O)C(Cl)(Cl)C(=O)Nc1cccc(-c3cc(-c4c(Cl)cccc4Cl)no3)c1)C2 [Cpd. 9, 2′,2′-dichloro-2′-[(1S)-endo-borneyloxycarbonyl]-N-[3-[3-(2,6-dichlorophenyl)-5-isoxazoyl]phenyl] acetamide]	≤ 10
CC(C)c1oc(=O)oc1CN(C(=O)C(Cl)Cl)c1cccc(-c2cc(-c3c(Cl)ccnc3N(C)C)no2)c1 [Cpd. 35]	≤ 10
CCc1oc(=O)oc1CN(C(=O)C(Cl)Cl)c1cccc(-c2cc(-c3c(Cl)cccc3Cl)no2)c1 [Cpd. 40]	≤ 10
COC(=O)C(Cl)(Cl)C(=O)Nc1cccc(-c2cc(-c3c(Cl)cccc3OC)no2)c1 [Cpd. 27, 2′,2′-dichloro-2′-(methoxycarbonyl)-N-[3-[3-(2-chloro-6-methoxyphenyl]5-isoxazoyl]phenyl] acetamide]	≤ 10
Cc1oc(=O)oc1CN(C(=O)C(Cl)Cl)c1ccnc(-c2cc(-c3c(Cl)cccc3Cl)no2)c1 [Cpd. 41, 2,2-dichloro-N-[2′-[3′-(2′,6′-dichlorophenyl)-5′-isoxazoyl](4-pyridyl)]-N-[(5-methyl-1,3-dioxolene-2-one4-yl)methylene] acetamide]	≤ 10

Same assay, conditions: Table 15; read-out: Replicon (IC50)

Compound	IC50 [µM]
2′,2′-Dichloro-N-[3-[3-(2,6-dichlorophenyl)-5-isoxazolyl]phenyl]-N-[2-(4-methoxybenzoyl)ethyl] Acetamide [Cpd. 103a]	≤ 10
2′,2′-Dichloro-N-[3-[3-(2-cyclopropyl-6-trifluoromethylphenyl)-5-isoxazolyl]phenyl]N-[2-(4-fluorobenzoyl)ethyl] Acetamide [Cpd. 114a]	≤ 10
2′,2′-Dichloro-N-[3-[3-(2-chloro-6-methoxycarbonylphenyl)-5-isoxazolyl]phenyl]-N-[2-(4-fluorobenzoyl)ethyl] Acetamide [Cpd. 133a]	≤ 10
2′,2′-Dichloro-N-[3-[3-(2-chloro-6-methoxyphenyl)-5-isoxazolyl]phenyl]-N-[2-(4-fluorobenzoyl)ethyl] Acetamide [Cpd. 113a]	≤ 10

Same assay, conditions: Tables 3-12; 50% reduction in luciferase emission, 5-2 Luc replicon cells; read-out: Replicon (IC50)

Compound	IC50 [µM]
2′-(diethoxyphosphonyl)-2′,2′-difluoro-N-[3-[3-(2,6-dichlorophenyl)-5-isoxazoyl]phenyl] acetamide [Cpd. 3]	> 10
2′-chloro-2′-(diethoxyphosphonyl)-2-fluoro-N-[3-[3-(2,6-dichlorophenyl)-5-isoxazoyl]phenyl] acetamide [Cpd. 2]	> 10
2,2-dichloro-2-(diethoxyphosphonyl)-N-[3-[3-(2,6-dichlorophenyl)-5-isoxazoyl]phenyl] acetamide [compound 405]	≤ 10

Tested on: HCV NS5A protein in 9-13 replicon cells
Test: Replicon quantitative Western blot assay (HEPC_REPLICON-ICWESTERN)
Type: cell-based
Conditions: Hepatitis C virus, read-out: HEPC_REPLICON-ICWESTERN Result Value
Procedure: Alternatively, the inhibitory activity of the metabolically active agents of the prodrugs can be confirmed using a quantitative Western immunoblot assay utilizing antibodies specific for HCV non-structural proteins, such as NS3, NS4A NS5A and NS5B. In one embodiment of this assay, replicon cells are treated with varying concentrations of test prodrug to determine the concentration of the metabolically active agent of the test prodrug that yields a 50% reduction in the amount of a non-structural protein produced as compared to a control sample (IC50). A single non-structural protein may be quantified or multiple non-structural proteins may be quantified. Antibodies suitable for carrying out such immunoblot assays are available commercially (e.g., from BIODESIGN International, Saco, Me.).
Certain prodrugs of the invention, which may inhibit HCV translation or replication prior to metablism and/or are metabolized into active agents, were also tested for their ability to inhibit HCV replication using a quantitative Western blot analysis with antibodies specific for the HCV NS5A or other non-structural proteins. Actively dividing 9-13 replicon cells were seeded into 6-well plates at a density of 1×10^5 cells/well in a volume of 2 ml/well and incubated at 37° C. and 5% CO2 for 24 hours. Various concentrations of test prodrugs (in a volume of 10 ul) were added to the wells and the cells incubated for another 48 hours. Protein samples were prepared from the cultured cells, resolved on a SDS-PAGE gel and transferred to a nitrocellulose membrane. The membrane was blocked with 5% non-fat milk in PBS for 1 hour at room temperature. Primary antibody (anti NS5A antibody; BIODESIGN International, Saco, Me.) incubation was performed for 1 hour at room temperature, after which the membrane was washed 3 times (for 15 min per time) with PBST (PBS plus 0.1% Tween 20). Horseradish peroxidase conjugated secondary antibody incubation was performed for 1 hour at room temperature and the membrane was washed 3 times (for 15 min per time) with PBST. The membrane was then soaked in substrate solution (Pierce) and exposed to a film or quantified using an imager. In this assay, the amount of test prodrug that is believed to be transformed into an active agent under the given conditions that yielded a 50% reduction in the amount of NS5A protein translated as compared to a control sample (IC50) was determined.

Compound	IC50 [µM]
CCOP(=O)(OCC)Oc1ccc(CCCN(C(=O)C(Cl)Cl)c2ccnc(-c3cc(-c4c(Cl)cccc4Cl)no3)c2)cc1 [Cpd. 1038, 4-(3-(2,2-Dichloro-N-(2-(3-(2,6-dichlorophenyl)isoxazol-5-yl)pyridin-4-yl)acetamido)propyl)phenyl Diethyl Phosphate]	1 to 20

Same assay, conditions: Hepatitis C virus; Table 14; read-out: HEPC_REPLICON-ICWESTERN Result Value

Compound	IC50 [µM]
O=C(C(Cl)Cl)N(COCCc1ccccn1)c1ccnc(-c2cc(-c3c(Cl)cccc3Cl)no2)c1 [Cpd. 1028, 2,2-Dichloro-N-(2-(3-(2,6-dichlorophenyl)isoxazol-5-yl)pyridin-4-yl)-N-((2-(pyridin-2-yl)ethoxy)methyl)acetamide]	> 20
CCCNC(=O)Oc1c(C)cc(CN(C(=O)C(Cl)Cl)c2ccnc(-c3cc(-c4c(Cl)cccc4Cl)no3)c2)cc1C [Cpd. 1027, 4-((2,2-Dichloro-N-(2-(3-(2,6-dichlorophenyl)isoxazol-5-yl)pyridin4-yl)acetamido)methyl)-2,6-dimethylphenyl Propylcarbamate]	1 to 20
O=C(CCN(C(=O)C(Cl)Cl)c1ccnc(-c2cc(-c3c(Cl)cccc3Cl)no2)c1)C1CCCN1 (stereo not shown) [Cpd. 1024, 2,2-Dichloro-N-(2-(3-(2,6-dichlorophenyl)isoxazol-5-yl)pyridin-4-yl)-N-(3-oxo-3-(pyrrolidin-2-yl)propyl)acetamide]	< 1
CC(C)(C)OC(=O)c1ccc(CCCN(C(=O)C(Cl)Cl)c2ccnc(-c3cc(-c4c(Cl)cccc4Cl)no3)c2)cc1 [Cpd. 1040, tert-Butyl 4-(3-(2,2-Dichloro-N-(2-(3-(2,6-dichlorophenyl)isoxazol-5-yl)pyridin-4-yl)acetamido)propyl)benzoate]	1 to 20
CC(C)(C)OC(=O)c1ccc(CN(C(=O)C(Cl)Cl)c2ccnc(-c3cc(-c4c(Cl)cccc4Cl)no3)c2)cc1 [Cpd. 1021, tert-Butyl 4-((2,2-Dichloro-N-(2-(3-(2,6-dichlorophenyl)isoxazol-5-yl)pyridin-4-yl)acetamido)methyl)benzoate]	1 to 20
O=C(C(Cl)Cl)N(CCN1CCOCC1)c1ccnc(-c2cc(-c3c(Cl)cccc3Cl)no2)c1 [Cpd. 1026, 2,2-Dichloro-N-(2-(3-(2,6-dichlorophenyl)isoxazol-5-yl)pyridin4-yl)-N-(2-morpholinoethyl)acetamide]	> 20
CC(C)(C)OC(=O)N1CCN(c2ccc(CCCN(C(=O)C(Cl)Cl)c3ccnc(-c4cc(-c5c(Cl)cccc5Cl)no4)c3)cc2)CC1 [Cpd. 1039, tert-Butyl 4-(4-(3-(2,2-Dichloro-N-(2-(3-(2,6-dichlorophenyl)isoxazol-5-yl)pyridin-4yl)acetamido)propyl)phenyl)piperazine-1-carboxylate]	> 20
